Laboratory results taken from PubChem BioAssay (NCI).
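1) Cells in 96-well plates. 2) Compound, 48 h, 5 concentrations. 3) Linear interpolation between surrounding doses. 4) Unreached endpoint = highest concentration. TGI is the concentration that stops growth completely.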

Tests used:
Test in all cases: inhibition of tumour cell growth, NCI panel, 48 h
HCT-15 colon = tested on: HCT-15 colon
CCRF-CEM leukemia = tested on: CCRF-CEM leukemia
TK-10 renal = tested on: TK-10 renal
SNB-19 CNS = tested on: SNB-19 CNS
UACC-62 melanoma = tested on: UACC-62 melanoma
NCI-H226 lung = tested on: NCI-H226 lung
A498 renal = tested on: A498 renal
SF-539 CNS = tested on: SF-539 CNS
SK-MEL-28 melanoma = tested on: SK-MEL-28 melanoma
RXF 393 renal = tested on: RXF 393 renal
786-0 renal = tested on: 786-0 renal
HOP-92 NSCLC = tested on: HOP-92 NSCLC
SW-620 colon = tested on: SW-620 colon
NCI-H460 lung = tested on: NCI-H460 lung
OVCAR-4 ovarian = tested on: OVCAR-4 ovarian
NCI-H522 lung = tested on: NCI-H522 lung
MDA-MB-231 breast = tested on: MDA-MB-231 breast
T-47D breast = tested on: T-47D breast
PC-3 prostate = tested on: PC-3 prostate
BT-549 breast = tested on: BT-549 breast

| SMILES | TGI (HCT-15 colon) | TGI (CCRF-CEM leukemia) | TGI (TK-10 renal) | TGI (SNB-19 CNS) | TGI (UACC-62 melanoma) | TGI (NCI-H226 lung) | TGI (A498 renal) | TGI (SF-539 CNS) | TGI (SK-MEL-28 melanoma) | TGI (RXF 393 renal) | TGI (786-0 renal) | TGI (HOP-92 NSCLC) | TGI (SW-620 colon) | TGI (NCI-H460 lung) | TGI (OVCAR-4 ovarian) | TGI (NCI-H522 lung) | TGI (MDA-MB-231 breast) | TGI (T-47D breast) | TGI (PC-3 prostate) | TGI (BT-549 breast) |
| --- | --- | --- | --- | --- | --- | --- | --- | --- | --- | --- | --- | --- | --- | --- | --- | --- | --- | --- | --- | --- |
| NC(=S)NNC(=O)/C(=C/c1ccc(/C=C(\NC(=O)c2ccccc2)C(=O)NNC(N)=S)cc1)NC(=O)c1ccccc1 | > 100 µM | > 100 µM | > 100 µM | > 100 µM | > 100 µM | > 100 µM | > 100 µM | > 100 µM | > 100 µM | > 100 µM | > 100 µM | > 100 µM | > 100 µM | > 100 µM | > 100 µM | > 71.1 µM | – | – | – | – |
| O=S(=O)([O-])[O-].[Fe+2].c1ccc(/C(=N\Nc2ccccn2)c2ccccn2)cc1 | 11.3 µM | 9.71 µM | 7.73 µM | 15.4 µM | 5.29 µM | 4.37 µM | 24.2 µM | 6.42 µM | – | 11.7 µM | 10.7 µM | 7.67 µM | 11.2 µM | 8.55 µM | 2.96 µM | 3.55 µM | – | – | – | – |
| COc1cc(/C=C/C(=O)c2sc(-n3nc(-c4ccccc4)cc3-c3ccccc3)nc2C)ccc1O | > 100 µM | > 100 µM | > 100 µM | – | > 100 µM | > 100 µM | > 100 µM | > 100 µM | > 100 µM | > 100 µM | > 100 µM | > 100 µM | > 100 µM | > 100 µM | – | > 100 µM | – | – | – | – |
| CC(=O)OCC(=O)[C@@]1(O)CC[C@H]2[C@@H]3CCC4=CC(=O)[C@H](C)C[C@]4(C)[C@H]3[C@@H](O)C[C@@]21C | > 100 µM | > 100 µM | > 100 µM | > 100 µM | > 100 µM | > 100 µM | > 100 µM | > 100 µM | > 100 µM | – | > 100 µM | > 100 µM | > 100 µM | > 100 µM | > 100 µM | > 100 µM | – | – | – | – |
| c1ccc(Nc2nnc(CSc3nc(-c4ccccc4)c(-c4ccccc4)[nH]3)s2)cc1 | 49.9 µM | 49.1 µM | > 100 µM | – | – | 33 µM | 49.1 µM | 43.6 µM | 44.6 µM | – | 39.3 µM | 37.7 µM | – | 36.3 µM | 87.7 µM | 34.9 µM | – | – | – | – |
| CC1=C/C(=N\OCC(=O)O)CC(c2ccc(C(C)C)cc2)C1 (stereo not drawn) | 71.9 µM | > 100 µM | – | – | > 100 µM | – | – | > 100 µM | – | > 100 µM | > 100 µM | > 100 µM | > 100 µM | > 100 µM | – | 79.1 µM | > 100 µM | > 100 µM | > 100 µM | – |
| CC(C)=CCCC1(C)C=Cc2c(c(C)cc3c2[nH]c2cc(O)ccc23)O1 (stereo not drawn) | > 25 µM | > 25 µM | > 25 µM | > 25 µM | > 25 µM | > 25 µM | – | > 25 µM | > 25 µM | > 25 µM | > 25 µM | > 25 µM | > 25 µM | > 25 µM | > 25 µM | > 25 µM | – | – | – | – |
| CC1CC2OC(=O)C3CC(O)CC(=C23)[C@@]12C[C@@H](c1ccoc1)OC2=O (stereo partly drawn) | > 100 µM | > 100 µM | > 100 µM | > 100 µM | > 100 µM | > 100 µM | – | > 100 µM | > 100 µM | > 100 µM | > 100 µM | > 100 µM | > 100 µM | > 100 µM | > 100 µM | > 100 µM | – | – | – | – |
| COc1ccc(/C=C2/C(C)=NN(c3cccc(Cl)c3)/C2=N/c2nc3ccccc3s2)cc1 | 36.1 µM | 92.7 µM | 68.8 µM | – | – | 56.4 µM | 62.4 µM | 60.7 µM | 46.9 µM | 26.8 µM | 38.1 µM | 47.7 µM | 52 µM | 43.2 µM | > 100 µM | 35.2 µM | 67.5 µM | > 100 µM | 38 µM | – |
| C/C(=N\N)C(CN(C)C)C(c1ccccc1)c1c(O)c2ccccc2oc1=O (stereo not drawn) | > 100 µM | > 100 µM | > 100 µM | > 100 µM | > 100 µM | > 100 µM | > 100 µM | > 100 µM | > 100 µM | > 100 µM | > 100 µM | > 100 µM | > 100 µM | > 100 µM | > 100 µM | > 100 µM | > 100 µM | – | > 100 µM | > 100 µM |
| COc1ccc(C2c3cc4c(cc3C(O)C3CCC(=O)N23)OCO4)cc1 (stereo not drawn) | > 100 µM | > 100 µM | > 100 µM | > 100 µM | > 100 µM | > 100 µM | > 100 µM | > 100 µM | > 100 µM | – | > 100 µM | > 100 µM | > 100 µM | > 100 µM | > 100 µM | > 100 µM | – | > 100 µM | > 100 µM | > 100 µM |
| NS(=O)(=O)c1cc2c(cc1Cl)NC(C(=O)c1cc(=O)c3ccc(O)cc3o1)=NS2(=O)=O | > 100 µM | > 100 µM | > 100 µM | > 100 µM | > 100 µM | > 100 µM | > 100 µM | > 100 µM | > 100 µM | > 100 µM | > 100 µM | > 100 µM | > 100 µM | > 100 µM | > 100 µM | > 100 µM | – | – | – | – |
| COC(=O)N1C[C@@]2(C=CC3(CC2)OCCO3)c2ccccc21 | > 100 µM | > 100 µM | > 100 µM | > 100 µM | > 100 µM | – | > 100 µM | – | > 100 µM | – | > 100 µM | > 100 µM | > 100 µM | > 100 µM | > 100 µM | – | > 100 µM | > 100 µM | > 100 µM | – |
| O=C(NC(C(F)(F)F)(C(F)(F)F)P(=O)(c1ccccc1)c1ccccc1)C(C(F)(F)F)C(F)(F)F | 83.3 µM | > 100 µM | 72.7 µM | > 100 µM | > 100 µM | > 100 µM | > 100 µM | 52.1 µM | > 100 µM | 68.2 µM | 47.8 µM | – | 62.3 µM | > 100 µM | > 100 µM | 71.6 µM | 59.2 µM | > 100 µM | 80.8 µM | – |
| C=CCONC(=O)c1ccc(Cl)cc1 | > 100 µM | > 100 µM | > 100 µM | > 100 µM | > 100 µM | – | > 100 µM | > 100 µM | > 100 µM | > 100 µM | > 100 µM | > 100 µM | > 100 µM | > 100 µM | > 100 µM | > 100 µM | – | – | – | – |
